According to patent US10173991B2, “Sulfone amide linked benzothiazole inhibitors of endothelial lipase” (BRISTOL-MYERS SQUIBB COMPANY, priority 2014, dated 2019):

Target: Endothelial lipase (EL) (Homo sapiens (Human), UniProt Q9Y5X9)
Assay: Endothelial lipase (EL) enzymatic assay with fluorescent substrate A10070 in DMPG vesicles
Format: biochemical
Outline: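 Compounds were preincubated with enzyme for 30 min at 37° C before FRET-substrate vesicles (A10070 in DMPG, 0.11 mole fraction) were added. Reaction rates were obtained from the 300–900 sec slope of fluorescence at 490/530 nm.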

Endothelial lipase (EL), sequence (Q9Y5X9 21-500): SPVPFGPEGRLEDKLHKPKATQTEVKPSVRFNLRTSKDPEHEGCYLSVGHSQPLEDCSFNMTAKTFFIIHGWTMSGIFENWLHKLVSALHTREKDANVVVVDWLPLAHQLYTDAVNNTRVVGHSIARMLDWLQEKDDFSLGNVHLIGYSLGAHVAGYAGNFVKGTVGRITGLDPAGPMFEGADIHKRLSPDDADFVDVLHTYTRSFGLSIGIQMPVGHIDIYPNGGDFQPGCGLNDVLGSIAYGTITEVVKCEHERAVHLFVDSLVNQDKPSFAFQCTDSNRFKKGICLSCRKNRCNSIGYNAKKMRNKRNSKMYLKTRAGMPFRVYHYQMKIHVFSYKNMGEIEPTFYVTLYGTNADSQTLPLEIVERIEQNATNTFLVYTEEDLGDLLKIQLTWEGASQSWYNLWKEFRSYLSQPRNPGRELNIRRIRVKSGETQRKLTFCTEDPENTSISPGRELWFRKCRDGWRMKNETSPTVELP

Row | IC50 [nM] | Compound
1 | 118 | CCOc1ccc(-c2ccc3nc(C(C(=O)NCC(=O)NC4CC4)S(=O)(=O)CCOC)sc3c2)cn1 (stereo not shown) [Example 299, N-[(cyclopropyl-carbamoyl)methyl]-2-[6-(6-ethoxypyridin-3-yl)-1,3-benzothiazol-2-yl]-2-(2-methoxyethane-sulfonyl)acetamide]
2 | 125 | COCCS(=O)(=O)C(C(=O)NCC(=O)NC1CC1)c1nc2ccc(-c3ccc(C4CC4)nc3)cc2s1 (stereo not shown) [Example 300, N-[(cyclopropyl-carbamoyl)methyl]-2-[6-(6-cyclopropyl-pyridin-3-yl)-1,3-benzothiazol-2-yl]-2-(2-methoxyethane-sulfonyl)acetamide]
3 | 160 | COCCS(=O)(=O)C(C(=O)NCC(=O)NC1CC1)c1nc2ccc(-c3ccc(F)nc3F)cc2s1 (stereo not shown) [Example 302, N-[(cyclopropyl-carbamoyl)methyl]-2-[6-(2,6-difluoropyridin-3-yl)-1,3-benzothiazol-2-yl]-2-(2-methoxyethane-sulfonyl)acetamide]
4 | 247 | COCCS(=O)(=O)C(C(=O)NCC(=O)NC1CC1)c1nc2ccc(-c3ccc(Cl)cn3)cc2s1 (stereo not shown) [Example 303, 2-[6-(5-chloropyridin-2-yl)-1,3-benzothiazol-2-yl]-N-[(cyclopropyl-carbamoyl)methyl]-2-(2-methoxyethane-sulfonyl)acetamide]
5 | 52 | COCCS(=O)(=O)C(C(=O)NCC(=O)NC1CC1)c1nc2ccc(-c3cncc(Cl)c3)cc2s1 (stereo not shown) [Example 304]
6 | 7 | COCCS(=O)(=O)C(C(=O)NCC(=O)NC1CC1)c1nc2ccc(-c3ccccc3)cc2s1 (stereo not shown) [Example 305, N-[(cyclopropyl-carbamoyl)methyl]-2-(2-methoxyethane-sulfonyl)-2-(6-phenyl-1,3-benzothiazol-2-yl) acetamide]
7 | 15 | COCCS(=O)(=O)C(C(=O)NCC(=O)NC1CC1)c1nc2ccc(-c3ccc(F)cc3)cc2s1 (stereo not shown) [Example 307, N-[(cyclopropyl-carbamoyl)methyl]-2-[6-(4-fluorophenyl)-1,3-benzothiazol-2-yl]-2-(2-methoxyethane-sulfonyl)acetamide]
8 | 93 | COCCS(=O)(=O)C(C(=O)NCC(=O)NC1CC1)c1nc2ccc(-c3cncnc3)cc2s1 (stereo not shown) [Example 310, N-[(cyclopropyl-carbamoyl)methyl]-2-(2-methoxyethane-sulfonyl)-2-[6-(pyrimidin-5-yl)-1,3-benzothiazol-2-yl]acetamide]
9 | 94 | COCCS(=O)(=O)C(C(=O)NCC(=O)NC1CC1)c1nc2ccc(-c3ccnc(F)c3)cc2s1 (stereo not shown) [Example 311, N-[(cyclopropyl-carbamoyl)methyl]-2-[6-(2-fluoropyridin-4-yl)-1,3-benzothiazol-2-yl]-2-(2-methoxyethane-sulfonyl)acetamide]
10 | 188 | COCCS(=O)(=O)C(C(=O)NCC(=O)NC1CC1)c1nc2ccc(-c3cccc(Cl)n3)cc2s1 (stereo not shown) [Example 312, 2-[6-(6-chloropyridin-2-yl)-1,3-benzothiazol-2-yl]-N-[(cyclopropyl-carbamoyl)methyl]-2-(2-methoxyethane-sulfonyl)acetamide]
11 | 313 | COCCS(=O)(=O)C(C(=O)NCC(=O)NC1CC1)c1nc2ccc(-c3ccnn3C)cc2s1 (stereo not shown) [Example 313, N-[(cyclopropyl-carbamoyl)methyl]-2-(2-methoxyethane-sulfonyl)-2-[6-(1-methyl-1H-pyrazol-5-yl)-1,3-benzothiazol-2-yl]acetamide]
12 | 150 | COCCS(=O)(=O)C(C(=O)NCC(=O)NC1CC1)c1nc2ccc(-c3cccc(F)n3)cc2s1 (stereo not shown) [Example 314, N-[(cyclopropyl-carbamoyl)methyl]-2-[6-(6-fluoropyridin-2-yl)-1,3-benzothiazol-2-yl]-2-(2-methoxyethane-sulfonyl)acetamide]
13 | 12 | COCCS(=O)(=O)C(C(=O)NCC(=O)NC1CC1)c1nc2ccc(-c3ccc(=O)n(C)c3)cc2s1 (stereo not shown) [Example 315, N-[(cyclopropyl-carbamoyl)methyl]-2-(2-methoxyethane-sulfonyl)-2-[6-(1-methyl-6-oxo-1,6-dihydropyridin-3-yl)-1,3-benzothiazol-2-yl}acetamide]
14 | 4 | COCCS(=O)(=O)C(C(=O)NCC(=O)NC1CC1)c1nc2ccc(-c3cc(C)nn3C)cc2s1 (stereo not shown) [Example 317, N-[(cyclopropyl-carbamoyl)methyl]-2-[6-(1,3-dimethyl-1H-pyrazol-5-yl)-1,3-benzothiazol-2-yl]-2-(2-methoxyethane-sulfonyl)acetamide]
15 | 7 | COCCS(=O)(=O)C(C(=O)NCC(=O)NC1CC1)c1nc2ccc(-c3cccnc3F)cc2s1 (stereo not shown) [Example 318, N-[(cyclopropyl-carbamoyl)methyl]-2-[6-(2-fluoropyridin-3-yl)-1,3-benzothiazol-2-yl]-2-(2-methoxyethane-sulfonyl)acetamide]

The remaining lines, values behind:

Row | Compound | IC50 [nM]
16 | COCCS(=O)(=O)C(C(=O)NCC(=O)NC1CC1)c1nc2ccc(-c3cnc(C(F)(F)F)nc3)cc2s1 (stereo not shown) [Example 301, N-[(cyclopropyl-carbamoyl)methyl]-2-(2-methoxyethane-sulfonyl)-2-{6-[2-(trifluoromethyl)pyrimidin-5-yl]-1,3-benzothiazol-2-yl}acetamide] | 155
17 | COCCNC(=O)c1ccc(-c2ccc3nc(C(C(=O)NCC(=O)NC4CC4)S(=O)(=O)CCOC)sc3c2)cc1 (stereo not shown) [Example 306, 4-[2-({[(cyclopropyl-carbamoyl)methyl]carbamoyl}(2-methoxyethane-sulfonyl)methyl)-1,3-benzothiazol-6-yl]-N-(2-methoxyethyl) benzamide] | 13
18 | COCCS(=O)(=O)C(C(=O)NCC(=O)NC1CC1)c1nc2ccc(-c3ccc(COC)cc3)cc2s1 (stereo not shown) [Example 308, N-[(cyclopropyl-carbamoyl)methyl]-2-(2-methoxyethane-sulfonyl)-2-{6-[4-(methoxymethyl)phenyl]-1,3-benzothiazol-2-yl}acetamide] | 27
19 | COCCS(=O)(=O)C(C(=O)NCC(=O)NC1CC1)c1nc2ccc(-c3ccc(C(=O)N4CCOCC4)cc3)cc2s1 (stereo not shown) [Example 309, N-[(cyclopropyl-carbamoyl)methyl]-2-(2-methoxyethane-sulfonyl)-2-{6-[4-(morpholine-4-arbonyl)phenyl]-1,3-benzothiazol-2-yl}acetamide] | 50
20 | COCCS(=O)(=O)C(C(=O)NCC(=O)NC1CC1)c1nc2ccc(-c3ccn(C)c(=O)c3)cc2s1 (stereo not shown) [Example 316, N-[(cyclopropyl-carbamoyl)methyl]-2-(2-methoxyethane-sulfonyl)-2-[6-(1-methyl-2-oxo-1,2-dihydropyridin-4-yl)-1,3-benzothiazol-2-yl]acetamide] | 13
21 | Cc1cc(F)ncc1-c1cc2sc(C(C(=O)NCC(=O)NC3CC3)S(C)(=O)=O)nc2cc1F (stereo not shown) [Example 319, N-[(cyclopropyl-carbamoyl)methyl]-2-[5-fluoro-6-(6-fluoro-4-methylpyridin-3-yl)-1,3-benzothiazol-2-yl]-2-methanesulfonyl-acetamide] | 15
22 | CS(=O)(=O)C(C(=O)NCC(=O)NC1CC1)c1nc2cc(F)c(-c3ccnc(F)c3)cc2s1 (stereo not shown) [Example 321, N-[(cyclopropyl-carbamoyl)methyl]-2-[5-fluoro-6-(2-fluoropyridin-4-yl)-1,3-benzothiazol-2-yl]-2-methanesulfonyl-acetamide] | 14
23 | COc1ncccc1-c1cc2sc(C(C(=O)NCC(=O)NC3CC3)S(C)(=O)=O)nc2cc1F (stereo not shown) [Example 322, N-[(cyclopropyl-carbamoyl)methyl]-2-[5-fluoro-6-(2-methoxypyridin-3-yl)-1,3-benzothiazol-2-yl]-2-methanesulfonyl-acetamide] | 5
24 | CS(=O)(=O)C(C(=O)NCC(=O)NC1CC1)c1nc2cc(F)c(-c3cncc(F)c3)cc2s1 (stereo not shown) [Example 323, N-[(cyclopropyl-carbamoyl)methyl]-2-[5-fluoro-6-(5-fluoropyridin-3-yl)-1,3-benzothiazol-2-yl]-2-methanesulfonyl-acetamide] | 23
25 | COc1cncc(-c2cc3sc(C(C(=O)NCC(=O)NC4CC4)S(C)(=O)=O)nc3cc2F)c1 (stereo not shown) [Example 324, N-[(cyclopropyl-carbamoyl)methyl]-2-[5-fluoro-6-(5-methoxypyridin-3-yl)-1,3-benzothiazol-2-yl]-2-methanesulfonyl-acetamide] | 15
26 | CS(=O)(=O)C(C(=O)NCC(=O)NC1CC1)c1nc2cc(F)c(-c3ccnc(C(F)(F)F)c3)cc2s1 (stereo not shown) [Example 325, N-[(cyclopropyl-carbamoyl)methyl]-2-{5-fluoro-6-[2-(trifluoromethyl)pyridin-4-yl]-1,3-benzothiazol-2-yl}-2-methanesulfonyl-acetamide] | 15
27 | CS(=O)(=O)C(C(=O)NCC(=O)NC1CC1)c1nc2cc(F)c(-c3cccnc3C(F)(F)F)cc2s1 (stereo not shown) [Example 326, N-[(cyclopropyl-carbamoyl)methyl]-2-{5-fluoro-6-[2-(trifluoromethyl)pyridin-3-yl]-1,3-benzothiazol-2-yl}-2-methanesulfonyl-acetamide] | 65
28 | CS(=O)(=O)C(C(=O)NCC(=O)NC1CC1)c1nc2cc(F)c(-c3cccc(C(N)=O)c3)cc2s1 (stereo not shown) [Example 327, 3-[2-({[(cyclopropyl-carbamoyl)methyl]carbamoyl} (methanesulfonyl)methyl)-5-fluoro-1,3-benzothiazol-6-yl]benzamide] | 19
29 | CS(=O)(=O)C(C(=O)NCC(=O)NC1CC1)c1nc2cc(F)c(-c3ccc(C(N)=O)c(Cl)c3)cc2s1 (stereo not shown) [Example 328, 2-chloro-4-[2-({[(cyclopropyl-carbamoyl)methyl]carbamoyl} (methanesulfonyl)methyl)-5-fluoro-1,3-benzothiazol-6-yl]benzamide] | 22
30 | COCCS(=O)(=O)C(C(=O)NCC(=O)NC1CC1)c1nc2ccc(-c3ccc(C(N)=O)cc3)cc2s1 (stereo not shown) [Example 329, 4-[2-({[(cyclopropyl-carbamoyl)methyl]carbamoyl}(2-methoxyethane-sulfonyl)methyl)-1,3-benzothiazol-6-yl]benzamide] | 46
31 | CS(=O)(=O)C(C(=O)NCC(=O)NC1CC1)c1nc2cc(F)c(-c3ccc(C(N)=O)cc3)cc2s1 (stereo not shown) [Example 331, 4-[2-({[(cyclopropyl-carbamoyl)methyl]carbamoyl} (methanesulfonyl)methyl)-5-fluoro-1,3-benzothiazol-6-yl]benzamide] | 4
